Experiment [1] deals with ICR mice. Nature of the experiment: Scratch bouts of ICR mice after 10% SDS application (Sample Experiment 1-1). In kind it is in vivo, mouse. The following applies: ICR mice, 10% SDS aqueous solution 50 μL single application to rostral back, Day 0 to Day 4, vs untreated and solvent control. How it is done: The present Sample Experiment was conducted using ICR mice, and an anionic surfactant, namely, sodium dodecyl sulfate (SDS), was used as a stimulating substance to analyze the scratch bouts of mice. After SDS had been applied, terfenadine (TRF) was administered as an antihistamine to determine its effect on scratch bouts.
Male ICR mice at ages of 7 to 8 weeks, purchased from Japan SLC, were used. The mice were given solid feed under free water supply and subjected to preliminary rearing for 7 days or longer under a constant temperature/constant humidity environment with a temperature of 22±2° C., and a humidity of 55±10% before they were used in the test. The mice for use were used in the test at least 3 days after shearing/depilating the rostral back of each mouse. […]
The scratch bouts of mice were performed in view of the Kuraishi et al. report. That is, a single mouse was put in each chamber of the 4 divided sections in an acrylic box (13×9×35 cm) to be acclimated for at least an hour, and they were video recorded in an environment without any person for at least an hour a day from the day of applying the above 10% SDS aqueous solution (Day 0) to the 4th day after application (Day 4) to record their movement. Then, by watching the video, the number of scratch bouts against the rostral back by the hind leg was counted. […]

Experiment [2] relates to mast cell deficient mice (WBB6F1-W/W^V) and normal control mice (WBB6F1-+/+). Nature of the experiment: Scratch bouts of mast cell deficient and normal control mice after 10% SDS application (Sample Experiment 1-2). In kind it is in vivo, mouse. The following applies: both mast cell deficient and normal control mice, 10% SDS aqueous solution 50 μL single application; no significant difference between both mice. How it is done: The present Sample Experiment was conducted using mast cell deficient mice and normal control mice, and SDS was used as a stimulating substance to analyze the scratch bouts of mice. Further, the amount of histamine in the skin of each mouse was assessed after SDS had been applied. Male mast cell deficient mice at ages of 7 to 8 weeks (WBB6F1-W/W^V mouse), purchased from Japan SLC, and normal control mice that are wild mice at ages of 7 to 8 weeks (WBB6F1-+/+mouse) were used. The mice were given solid feed under free water supply and subjected to preliminary rearing for 7 days or longer under a constant temperature/constant humidity environment with a temperature of 22±2° C., and a humidity of 55±10% before they were used in the test. The mice for use were used in the test at least 3 days after shearing/depilating the rostral back of each mouse. A 10% aqueous solution composed of SDS dissolved in distilled water was applied a single time at 50 μL as a stimulating substance against the skin to the sheared/depilated rostral back of the mice mentioned above. If the surfactant solution had turned hard before application, it was heated and dissolved in a hot water bath of 37° C. before use. Distilled water was applied to the solvent control group (Vehicle). […]

Experiment [3] relates to histamine in mouse epidermis and dermis. Briefly: Amount of histamine in ICR mouse skin after SDS (Sample Experiment 1-3). It counts as in vivo. The following applies: ICR mice, Day 4, 10% SDS application group vs solvent control. How it is done: The present Sample Experiment was conducted using ICR mice, and SDS was used as a stimulating substance. After SDS was applied, the amount of histamine in the skin of each mouse was assessed, and so was the HDC expression amount in the skin of each mouse. The same ICR mice as used in Sample Experiment 1-1 was used. Treatments of the ICR mice, such as preliminary rearing, and the shearing/depilating of the rotal back, were performed similarly to Sample Experiment 1-1. A 10% aqueous solution obtained by dissolving SDS in distilled water was applied to the mouse rostal back as a stimulating substance against the skin similarly to Sample Experiment 1-1. Distilled water was applied to the solvent control group (Vehicle). Skin was collected by operations similar to that mentioned in “Amount of Histamine in Mouse Skin” in Sample Experiment 1-2 from each ICR mouse of the 10% SDS aqueous solution application group and the solvent control group mentioned above after 4 days had passed from application (Day 4). The collected skins were separated into the epidermis and the dermis, and the amounts of histamine in those skins were measured.

As for `CCCCCCCCCCCCOS(=O)(=O)[O-].[Na+]` [SDS, sodium dodecyl sulfate], the “scratch bouts of mice (number in 60 mins.) after stimulating substance” value in experiment [1] is on record as “increased significantly over time”; in experiment [2], “increased significantly with time”. The “amount of histamine in mouse dermis” value in experiment [3] was “does not differ significantly”. In experiment [3], the “amount of histamine in mouse epidermis” value was “significantly higher”.

These data come from patent US20150335558A1, “NERVE GROWTH INHIBITOR, CUTANEOUS-SENSORY-IRRITATION INHIBITOR, AND MARKER FOR CUTANEOUS-SENSORY-IRRITATION DETECTION” (HOYU CO., LTD., priority 2012, published 2015).
